Target: T1, FimH (Escherichia coli, UniProt Q1R2J4)
T1 construct: endogenous in cells; host or cells: E. coli UTI89 bacteria
Assay: Hemagglutination inhibition (HAI) assay with UTI89 bacteria and guinea pig red blood cells
Assay type: cell-based
Details: concentration reducing bacterial agglutination of guinea pig red blood cells by greater than 90%; UTI89 bacteria
Experimental: “HAI or EC>90” is that concentration of the FimH inhibitor/antagonist which reduces the bacterial agglutination of guinea pig red blood cells by greater than 90%.
HAI Assay The hemagglutination inhibition (HAI) assay was performed with UTI89 bacteria and guinea pig red blood cells, as previously described (S. J. Hultgren, W. R. Schwan, A. J. Schaeffer, J. L. Duncan Infect. Immun. 1986, 54, 613-620). Compounds not listed were not tested.

| SMILES | HAI titer EC>90 [µM] |
| --- | --- |
| Cc1cc(-c2ccc3c(c2)C(=O)N(C(C)C)CC3)ccc1O[C@H]1O[C@H](CO)[C@@H](O)[C@H](O)[C@@H]1O [Example 27, 2-isopropyl-3,4-Dihydro-7-[4′-(α-D-mannopyranosyloxy)-3′-methylphenyl]-1(2H)-isoquinolinone] | 0.032 |
| Cc1cc(-c2ccnc(Cl)c2)ccc1OC1OC(CO)C(O)C(O)C1O [Example 6a, 4-(2′-chloropyrid-4′-yl)-2-methylphenyl α-D-mannopyranoside] | 0.062 |
| Cc1cc(-c2ccnc(-c3ccnc(Cl)c3)c2)ccc1OC1OC(CO)C(O)C(O)C1O [Example 6b, 4-[2′-(2″-chloropyrid-4″-yl)-pyrid-4′-yl]-2-methylphenyl α-D-mannopyranoside] | 0.062 |
| CC(=O)Nc1cccc(Oc2cc(C)c(O[C@H]3O[C@H](CO)[C@@H](O)[C@H](O)[C@@H]3O)cc2[N+](=O)[O-])c1 [Example 31, N-(3-[4-(α-D-mannopyranosyloxy)-5-methyl-2-nitrophenoxy]phenyl)acetamide] | 0.5 |
| Cc1cc(Oc2cccc(C#N)c2)c([N+](=O)[O-])cc1O[C@H]1O[C@H](CO)[C@@H](O)[C@H](O)[C@@H]1O [Example 1, 3-[4-(α-D-mannopyranosyloxy)-5-methyl-2-nitrophenoxy]benzonitrile] | 0.125 |
| Cc1cc(-c2ccc3[nH]nc(N)c3c2)ccc1O[C@H]1O[C@H](CO)[C@@H](O)[C@H](O)[C@@H]1O [Example 13, 5-[4′-(α-D-mannopyranosyloxy)-3′-methylphenyl]-1H-indazol-3-amine] | 0.125 |
| CNC(=O)c1cc(C(=O)NCCCCCCNC(=O)CCCCC[N+]2=C(/C=C/C=C/C=C3/c4ccc5ccccc5c4C(C)(C)N3C)C(C)(C)c3ccc4ccccc4c32)cc(-c2ccc(OC3OC(CO)C(O)C(O)C3O)c(C)c2)c1 [Example 22, N^3-(Cyanine5.5)-4′-(α-D-mannopyranosyl)-N^5,3′-dimethyl-[1,1′biphenyl]-3,5-dicarboxamide chloride] | 2 |
| Cc1cc(-c2cccc3c(N)nccc23)ccc1O[C@H]1O[C@H](CO)[C@@H](O)[C@H](O)[C@@H]1O [Example 17, 5-[4′-(α-D-mannopyranosyloxy)-3′-methylphenyl]-isoquinolin-1-amine] | 0.062 |
| Cc1cc(-c2cccc(C(=O)NCCCCCCNC(=O)CCCCC[N+]3=C(/C=C/C=C/C=C4/c5ccc6ccccc6c5C(C)(C)N4C)C(C)(C)c4ccc5ccccc5c43)c2)ccc1OC1OC(CO)C(O)C(O)C1O.[Cl-] [Example 10, N-(Cyanine5.5)-4′-(α-D-mannopyranosyl)-3′-methyl-[1,1′biphenyl]-3-carboxamide chloride] | 16 |
| CS(=O)(=O)c1ccc(-c2ccc(O[C@H]3O[C@H](CO)[C@@H](O)[C@H](O)[C@@H]3O)c(Cl)c2)cc1 [Example 37, 3-chloro-4′-(methylsulfonyl)biphenyl-4-yl α-D-mannopyranoside] | 0.15 |
| CNC(=O)c1cccc(-c2ccc(O[C@H]3O[C@H](CO)[C@@H](O)[C@H](O)[C@@H]3O)c(C#N)c2)c1 [Example 39, 4′-(α-D-mannopyranosyloxy)-3′-cyano-N-methyl-1,1′biphenyl-3-carboxamide] | 0.188 |
| Cc1cc(Oc2ccccc2C#N)c([N+](=O)[O-])cc1O[C@H]1O[C@H](CO)[C@@H](O)[C@H](O)[C@@H]1O [Example 35, 2-[4-(α-D-mannopyranosyloxy)-5-methyl-2-nitrophenoxy]benzonitrile] | 1 |
| Cc1cc(-c2cccc(-c3nnn[nH]3)c2)ccc1O[C@H]1O[C@H](CO)[C@@H](O)[C@H](O)[C@@H]1O [Example 18, 3-Methyl-3′-(2H-tetrazol-5-yl)[1,1′-biphenyl]-4-yl α-D-mannopyranoside] | 0.125 |
| CC(=O)Nc1ccccc1Oc1cc(C)c(O[C@H]2O[C@H](CO)[C@@H](O)[C@H](O)[C@@H]2O)cc1[N+](=O)[O-] [Example 30, N-(2-[4-(α-D-mannopyranosyloxy)-5-methyl-2-nitrophenoxy]phenyl)acetamide] | 1.5 |
